Results on 19 compounds are retold here after ChEMBL document CHEMBL1828558, “Discovery of (+)-N-(3-aminopropyl)-N-[1-(5-benzyl-3-methyl-4-oxo-[1,2]thiazolo[5,4-d]pyrimidin-6-yl)-2-methylpropyl]-4-methylbenzamide (AZD4877), a kinesin spindle protein inhibitor and potential anticancer agent” (J Med Chem, 2011).

Molecules are shown by their SMILES. pIC50: −log10 of the molar value. Converted amounts (≈) assume the structure as drawn. The source made the active and inactive calls. No cut-off for these calls is given here.

For data set [1], the system named is COLO 205. As to the kind of experiment: Anticancer activity against human COLO205 cells after 72 hrs by MTS/PMS assay. Format: functional, cell-based.
For data set [2], the target named is T1, Kinesin-like protein KIF11 (Homo sapiens, UniProt P52732).
T1 sequence (P52732 whole entry): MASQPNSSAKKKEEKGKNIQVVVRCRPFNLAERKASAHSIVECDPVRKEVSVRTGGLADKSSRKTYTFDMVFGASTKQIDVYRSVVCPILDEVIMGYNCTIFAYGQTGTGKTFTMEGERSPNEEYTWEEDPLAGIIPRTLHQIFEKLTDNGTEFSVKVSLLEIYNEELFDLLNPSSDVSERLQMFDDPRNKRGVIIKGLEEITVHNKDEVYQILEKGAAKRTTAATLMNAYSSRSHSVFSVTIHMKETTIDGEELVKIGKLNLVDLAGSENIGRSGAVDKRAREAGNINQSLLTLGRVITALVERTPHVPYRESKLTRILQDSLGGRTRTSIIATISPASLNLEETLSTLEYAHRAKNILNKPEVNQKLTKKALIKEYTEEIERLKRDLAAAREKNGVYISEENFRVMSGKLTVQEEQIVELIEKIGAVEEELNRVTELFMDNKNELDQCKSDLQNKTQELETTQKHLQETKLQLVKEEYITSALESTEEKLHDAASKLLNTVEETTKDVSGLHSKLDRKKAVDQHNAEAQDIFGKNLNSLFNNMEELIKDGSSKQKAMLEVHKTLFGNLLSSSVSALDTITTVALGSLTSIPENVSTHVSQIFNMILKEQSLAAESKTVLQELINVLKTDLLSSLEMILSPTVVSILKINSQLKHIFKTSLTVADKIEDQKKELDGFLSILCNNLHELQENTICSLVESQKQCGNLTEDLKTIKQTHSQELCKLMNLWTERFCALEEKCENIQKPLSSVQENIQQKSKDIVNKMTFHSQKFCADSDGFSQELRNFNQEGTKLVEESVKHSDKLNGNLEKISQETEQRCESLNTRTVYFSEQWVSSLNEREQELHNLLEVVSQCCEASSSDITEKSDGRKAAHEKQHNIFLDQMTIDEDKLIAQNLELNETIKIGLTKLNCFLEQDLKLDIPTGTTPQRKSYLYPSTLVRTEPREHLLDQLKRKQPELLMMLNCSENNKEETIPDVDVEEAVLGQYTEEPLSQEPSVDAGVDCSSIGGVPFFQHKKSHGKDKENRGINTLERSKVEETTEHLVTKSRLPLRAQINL
As to the kind of experiment: Inhibition of human recombinant C-terminal His6-tagged KSP ATPase activity after 1 hr by malachite green assay.

Data set [3] is described as follows: Aqueous solubility of the compound in 0.1 M phosphate buffer at pH 7.4 after 24 hrs by HPLC-UV method. In kind it is physicochemical.
A short description of data set [4]: Clearance in nude mouse. In kind it is ADME, organism-based. The following applies: in vivo.
Data set [5] is filed under the species Cavia porcellus. Kind of data set: Binding affinity to sodium channel site 2 in guinea pig atria at 10 uM by radioligand displacement assay. Background: In a radioligand displacement assay an active substance lowers the binding of a labelled ligand.
Data set [6] has as its system Rattus norvegicus. Kind of data set: Increase in caspase 3 activation in Hans Wistar rat hollow fiber model implanted with human COLO205 cells at 6 mg/kg, iv after 48 hrs. Particulars: COLO 205. Also on record: dose 6 mg/kg. Format: functional, organism-based.
Data set [7] concerns Rattus norvegicus. As to the kind of experiment: Increase monasters formation in Hans Wistar rat hollow fiber model implanted with human COLO205 cells at 6 mg/kg, iv after 24 hrs. Format: functional, organism-based. The following applies: COLO 205. Also on record: dose 6 mg/kg.
In data set [8] the test system is Rattus norvegicus. As to the kind of experiment: Increase of phospho-histone-H3 positive cells in Hans Wistar rat hollow fiber model implanted with human COLO205 cells at 6 mg/kg, iv after 24 hrs. Format: functional, organism-based. Also on record: dose 6 mg/kg. Particulars: COLO 205.
Data set [9] concerns the target Somatostatin receptor type 1 (Homo sapiens) (UniProt P30872). As to the kind of experiment: Binding affinity to human SST1 receptor at 10 uM by radioligand displacement assay.
In data set [10] the test system is Rattus norvegicus. As to the kind of experiment: Increase of phospho-histone-H3 positive cells in Hans Wistar rat hollow fiber model implanted with human COLO205 cells at 12 mg/kg, iv after 24 hrs. Format: functional, organism-based. Also on record: dose 12 mg/kg. Particulars: COLO 205.
The species named for data set [11] is Cavia porcellus. As to the kind of experiment: Binding affinity to L-type calcium channel phenylalkylamine binding site in guinea pig ileum at 10 uM by radioligand displacement assay. In kind it is tissue-based.
For data set [12], the system named is Rattus norvegicus. As to the kind of experiment: Increase in caspase 3 activation in Hans Wistar rat hollow fiber model implanted with human COLO205 cells at 12 mg/kg, iv after 48 hrs. Format: functional, organism-based. Particulars: COLO 205. Details: dose 12 mg/kg.
For data set [13], the system named is Rattus norvegicus. As to the kind of experiment: Increase monasters formation in Hans Wistar rat hollow fiber model implanted with human COLO205 cells at 12 mg/kg, iv after 24 hrs. In kind it is functional, organism-based. Also on record: dose 12 mg/kg. Particulars: COLO 205.
The target in data set [14] is Ribosomal protein S6 kinase alpha-1 (Homo sapiens) (UniProt Q15418). Kind of data set: Inhibition of MAPKAP-K1a at 10 uM.
The species entered for data set [15] is Cavia porcellus. As to the kind of experiment: Binding affinity to L-type calcium channel benzothiazepine binding site in guinea pig ileum at 10 uM by radioligand displacement assay. In kind it is tissue-based.
The subject of data set [16] is Rattus norvegicus. Kind of data set: Increase monasters formation in Hans Wistar rat hollow fiber model implanted with human COLO205 cells at 12 mg/kg, iv after 48 hrs. Format: functional, organism-based. Details: dose 12 mg/kg. The following applies: COLO 205.
Data set [17] concerns Rattus norvegicus. Kind of data set: Increase monasters formation in Hans Wistar rat hollow fiber model implanted with human COLO205 cells at 6 mg/kg, iv after 48 hrs. Also on record: dose 6 mg/kg. The following applies: COLO 205. In kind it is functional, organism-based.
Data set [18] concerns the target T2, Polyunsaturated fatty acid 5-lipoxygenase (Homo sapiens) (UniProt P09917).
T2 sequence (whole entry): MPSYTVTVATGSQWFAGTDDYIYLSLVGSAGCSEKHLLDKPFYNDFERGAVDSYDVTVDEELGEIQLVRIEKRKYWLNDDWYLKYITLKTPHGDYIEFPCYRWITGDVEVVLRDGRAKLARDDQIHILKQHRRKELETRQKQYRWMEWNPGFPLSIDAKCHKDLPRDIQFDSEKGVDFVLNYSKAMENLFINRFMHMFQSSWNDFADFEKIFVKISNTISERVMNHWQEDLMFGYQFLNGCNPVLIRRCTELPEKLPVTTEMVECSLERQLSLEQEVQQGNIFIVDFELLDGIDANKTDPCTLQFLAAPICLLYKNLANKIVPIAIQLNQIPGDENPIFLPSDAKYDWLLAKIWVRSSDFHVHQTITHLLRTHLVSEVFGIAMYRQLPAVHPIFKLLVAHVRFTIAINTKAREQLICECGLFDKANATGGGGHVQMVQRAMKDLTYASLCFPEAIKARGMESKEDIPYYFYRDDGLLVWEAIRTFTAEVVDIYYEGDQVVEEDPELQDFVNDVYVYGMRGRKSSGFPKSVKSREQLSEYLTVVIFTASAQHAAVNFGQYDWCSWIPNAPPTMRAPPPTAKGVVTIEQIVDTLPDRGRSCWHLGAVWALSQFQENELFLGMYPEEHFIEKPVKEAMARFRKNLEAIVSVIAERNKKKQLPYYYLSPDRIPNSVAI
As to the kind of experiment: Inhibition of human 5-lipoxygenase at 10 uM.

In data set [19] the target is Tyrosine-protein kinase Lck (Homo sapiens) (UniProt P06239). As to the kind of experiment: Inhibition of LCK at 10 uM.
Sequence of Tyrosine-protein kinase Lck (Homo sapiens) (P06239 2-509 limits assumed): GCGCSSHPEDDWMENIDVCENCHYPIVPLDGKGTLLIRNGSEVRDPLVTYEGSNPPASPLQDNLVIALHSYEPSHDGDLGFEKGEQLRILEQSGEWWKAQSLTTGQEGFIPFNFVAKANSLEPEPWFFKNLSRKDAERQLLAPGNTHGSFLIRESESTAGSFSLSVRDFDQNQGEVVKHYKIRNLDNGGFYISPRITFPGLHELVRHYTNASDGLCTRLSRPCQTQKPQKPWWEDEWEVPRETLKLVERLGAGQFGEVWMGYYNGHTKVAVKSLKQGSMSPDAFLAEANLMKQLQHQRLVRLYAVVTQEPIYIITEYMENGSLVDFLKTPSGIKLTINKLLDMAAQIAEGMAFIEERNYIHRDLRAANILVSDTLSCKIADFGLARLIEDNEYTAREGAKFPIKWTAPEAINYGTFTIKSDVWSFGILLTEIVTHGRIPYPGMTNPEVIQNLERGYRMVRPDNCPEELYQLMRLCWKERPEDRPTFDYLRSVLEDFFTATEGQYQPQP

Sequence of Somatostatin receptor type 1 (Homo sapiens) (P30872 whole entry): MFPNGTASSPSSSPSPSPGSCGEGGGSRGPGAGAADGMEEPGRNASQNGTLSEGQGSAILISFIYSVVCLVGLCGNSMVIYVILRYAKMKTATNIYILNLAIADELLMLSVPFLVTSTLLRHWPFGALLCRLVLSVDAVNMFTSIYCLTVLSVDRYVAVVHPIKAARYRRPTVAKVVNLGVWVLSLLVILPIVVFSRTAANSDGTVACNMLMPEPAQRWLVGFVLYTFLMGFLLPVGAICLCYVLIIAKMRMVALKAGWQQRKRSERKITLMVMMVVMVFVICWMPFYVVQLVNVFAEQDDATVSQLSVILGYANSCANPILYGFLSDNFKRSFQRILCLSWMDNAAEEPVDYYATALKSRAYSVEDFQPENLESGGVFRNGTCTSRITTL
Sequence of Ribosomal protein S6 kinase alpha-1 (Homo sapiens) (Q15418 whole entry): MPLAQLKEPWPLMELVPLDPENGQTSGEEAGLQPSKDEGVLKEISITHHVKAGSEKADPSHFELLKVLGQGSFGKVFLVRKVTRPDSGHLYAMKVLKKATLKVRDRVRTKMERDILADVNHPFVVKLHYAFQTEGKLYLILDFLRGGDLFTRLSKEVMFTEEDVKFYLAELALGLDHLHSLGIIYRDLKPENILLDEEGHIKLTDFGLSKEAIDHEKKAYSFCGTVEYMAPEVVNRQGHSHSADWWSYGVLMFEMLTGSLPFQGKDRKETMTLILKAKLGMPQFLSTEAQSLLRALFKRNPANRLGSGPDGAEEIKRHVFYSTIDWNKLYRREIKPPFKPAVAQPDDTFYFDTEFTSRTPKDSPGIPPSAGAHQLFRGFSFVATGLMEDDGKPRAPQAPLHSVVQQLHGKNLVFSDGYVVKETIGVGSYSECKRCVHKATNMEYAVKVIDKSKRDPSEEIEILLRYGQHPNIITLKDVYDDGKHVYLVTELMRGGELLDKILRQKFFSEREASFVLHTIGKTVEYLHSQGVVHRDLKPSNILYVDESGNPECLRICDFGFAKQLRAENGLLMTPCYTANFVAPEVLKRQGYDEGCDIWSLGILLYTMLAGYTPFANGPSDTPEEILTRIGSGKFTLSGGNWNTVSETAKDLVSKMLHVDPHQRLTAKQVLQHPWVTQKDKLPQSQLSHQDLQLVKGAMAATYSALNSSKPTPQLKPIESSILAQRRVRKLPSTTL

A word on the pIC50: it is the IC50 on a negative log10 scale, so that one unit is a factor of ten. One may read the solubility as the dissolved amount per volume that the medium holds. A higher solubility goes with a readily soluble substance. As to `CCC(c1nc2snc(C)c2c(=O)n1Cc1ccccc1)N(CCCN)C(=O)c1ccc(C)cc1` (stereo in doubt; 62), the pIC50 in data set [1] (colo 205) is 8.40; in [2] it was 8.52. The compound further registered a solubility at 24 h in data set [3] of 1570 µM (≈ 770 µg/mL).
The matching figures for `CCC(c1nc2sccc2c(=O)n1Cc1ccccc1)N(CCCN)C(=O)c1ccc(C)cc1` (stereo in doubt; 56): 7.52, 8.10 and 1240 µM (≈ 588 µg/mL).
By clearance is commonly meant a measure of how efficiently the substance is removed, as volume per time. Low readings indicate a low capacity for elimination, high ones a high capacity for elimination. Take `CCC(c1nc2snc(C)c2c(=O)n1Cc1ccccc1)N(CCCN)C(=O)c1ccc(C)cc1` (stereo in doubt; 68): the pIC50 in data set [1] (Homo sapiens, COLO 205, 72 h) was 8.52; in data set [2] it was 9.00. In [4], this compound registered a clearance of 50 mL/min/kg.
The inhibition is the change of the read-out against control, counted positive when it falls. Regarding `Cc1ccc(C(=O)N(CCCN)C(c2nc3snc(C)c3c(=O)n2Cc2ccccc2)C(C)C)cc1` (single isomer, unassigned; (+)), the inhibition was 99% in data set [5]; 80% in data set [9]; 76% in data set [11]; 35% in [14]; 87% in [15]; 71% in [18]. In data set [19], the inhibition was found to be 42%. Moreover, the result in data set [6], in [7], in data set [8], in data set [10], in data set [12] and in [13] was Active. For the same compound, the result in data set [16] and in [17] was Active.
Regarding `CCC(c1nc2ccsc2c(=O)n1Cc1ccccc1)N(CCCN)C(=O)c1ccc(Cl)cc1` (stereo not given), the pIC50 was 6.70 in data set [1] (Homo sapiens, COLO 205, 72 h) and 7.30 in [2].
With `CCC(c1nc2sc(Br)cc2c(=O)n1Cc1ccccc1)N(CCCN)C(=O)c1ccc(C)cc1` (stereo not given), the pIC50 in [1] (Homo sapiens, COLO 205, 72 h) was 6.12; in data set [2] it was 6.85.
For `CCC(c1nc2ccsc2c(=O)n1Cc1ccccc1)N(CCCN)C(=O)c1ccc(C)c(F)c1` (stereo not given), in that order: 7.22 and 7.70.
The matching figures for `CCc1ccc(C(=O)N(CCCN)C(CC)c2nc3ccsc3c(=O)n2Cc2ccccc2)cc1` (stereo not given): 6.60 and 7.05.
Take `CCC(c1nc2ccsc2c(=O)n1Cc1ccccc1)N(C(=O)c1ccc(C)cc1)C1CCNCC1` (stereo not given): the pIC50 in [1] (Homo sapiens, COLO 205, 72 h) is 5.89; in data set [2] it was 5.97.
For `CCC(c1nc2ccsc2c(=O)n1Cc1ccccc1)N(CCCCN)C(=O)c1ccc(C)cc1` (stereo not given), in that order: 6.01 and 6.41.
On to `CCC(c1nc2ccsc2c(=O)n1Cc1ccccc1)N(CC1CCNCC1)C(=O)c1ccc(C)cc1` (stereo not given), for which the negative logarithm of the IC50 (pIC50) in data set [1] (Homo sapiens, COLO 205, 72 h) is 5.00; in data set [2], 5.84.
Consider `CCC(c1nc2ccsc2c(=O)n1Cc1ccccc1)N(CCCN)C(=O)c1ccc2ccccc2c1` (stereo not given), for which the pIC50 in data set [1] (Homo sapiens, COLO 205, 72 h) was 6.70; in data set [2], 7.52.
For `CCC(c1nc2ccsc2c(=O)n1Cc1ccccc1)N(CCCN)C(=O)c1ccco1` (stereo not given), in that order: 5.81 and 6.30.
For `CCC(c1nc2sc(Cl)cc2c(=O)n1Cc1ccccc1)N(CCCN)C(=O)c1ccc(C)cc1` (stereo not given), in that order: 6.33 and 7.07.
For `CCC(c1nc2ccn(C)c2c(=O)n1Cc1ccccc1)N(CCCN)C(=O)c1ccc(C)cc1` (stereo not given), in that order: 7.37 and 7.68.
For `CCC(c1nc2ccsc2c(=O)n1Cc1cccc(F)c1)N(CCCN)C(=O)c1ccc(C)cc1` (stereo not given), the pIC50 in [1] (Homo sapiens, COLO 205, 72 h) was 6.48; in data set [2], 7.70.
For `CCC(c1nc2ccsc2c(=O)n1Cc1ccc(OC)cc1)N(CCCN)C(=O)c1ccc(C)cc1` (stereo not given), in that order: 6.10 and 6.80.
In the case of `CCC(c1nc2onc(C)c2c(=O)n1Cc1ccccc1)N(CCCN)C(=O)c1ccc(C)cc1` (stereo not given), the pIC50 in data set [1] (Homo sapiens, COLO 205, 72 h) is 7.64; in data set [2], 7.80. The compound also came in with a solubility at 24 h in [3] of 69 µM (≈ 32.7 µg/mL).
`CCC(c1nc2ccsc2c(=O)n1Cc1ccccc1)N(CCCN)C(=O)c1ccc(Cl)cc1Cl` (stereo not given): the negative logarithm of the IC50 (pIC50) in data set [1] (Homo sapiens, COLO 205, 72 h) is 6.51; in data set [2] it was 6.82.
